These results are taken from patent publication US12384769B2, “Heteroaryl-substituted aminoalkyl azole compounds as pesticides” (Elanco Animal Health GmbH, priority 2019, dated 2025).

What is called mortality is the percentage killed.

The structures appear in SMILES notation.

Type in all cases: in vivo
In assay [1] the test system is Ctenocephalides felis. Kind of assay: Ctenocephalides felis in-vitro contact test, adult cat flea. The note with it: 5 μg/cm^2 (=500 g/ha), after 48 hours, read-out: activity (efficacy, fleas dead or moribund). The method, then: Ctenocephalides felis—in-Vitro Contact Tests Adult Cat Flea
9 mg compound is solved in 1 ml acetone and diluted with acetone to the desired concentration. […] the test solution is filled in 25 ml glass test tubes and homogeneously distributed on the inner walls by rotation and tilting on a shaking device (2 h at 30 rpm). With a compound concentration of 900 ppm, an inner surface of 44.7 cm^2 and a homogeneous distribution, a dose of 5 μg/cm^2 is achieved.
After the solvent has evaporated, each test tube is filled with 5-10 adult cat fleas (Ctenocephalides felis), closed with a perforated lid and incubated in a lying position at room temperature and relative humidity. After 48 hours efficacy is determined. The fleas are patted on the ground of the tubes and are incubated on a heating plate at 45-50° C. for at most 5 minutes Immotile or uncoordinated moving fleas, which are not able to escape the heat by climbing upwards, are marked as dead or moribund.
An efficacy of 100% means all fleas are dead or moribund; 0% means no fleas are dead or moribund.

Assay [2] deals with Spodoptera frugiperda. The experiment in a line: Spodoptera frugiperda spray test. The settings on record: in Zea mays, 168 h, read-out: activity (mortality). The essentials: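 Compound in acetone/DMF, diluted in water with 1000 ppm alkylarylpolyglycol ether emulsifier, sprayed on maize leaf sections. Dried leaves infested with fall armyworm larvae; % mortality after 7 days (100% = all killed, 0% = none).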

The test system of assay [3] is Myzus persicae. The experiment in a line: Myzus persicae oral test. The settings on record: 120 h, after 5 days. The method, then:
Solvent: 100 parts by weight acetone
Afterwards the plates are sealed with parafilm through which a mixed population of the green peach aphid (Myzus persicae) can suck on the compound preparation.
After 5 days mortality in % is determined. 100% means all aphids have been killed and 0% means none of the aphids have been killed.

Assay [4] concerns Boophilus microplus. The experiment in a line: Boophilus microplus injection test (BOOPMI Injection). The settings on record: Rhipicephalus microplus, 168 h, injection into adult engorged female ticks, egg deposition after 7 days, read-out: activity (efficacy, infertile eggs); for pest or weed control at 0.004 mg: 4 μg/animal; for pest or weed control at 0.02 mg: 20 μg/animal. The essentials: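 Adult engorged female ticks (5 per group) injected into the abdomen with 1 μL compound in DMSO, then held in a climate chamber. Fertile egg deposition scored after 7 days, with unclear eggs kept until hatching (~42 days). Efficacy 100% = all eggs infertile, 0% = all fertile.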

For assay [5], the system named is Aedes aegypti strain MONHEIM. Kind of assay: Aedes aegypti test (AEDSAE surface treatment & contact assay). The settings on record: surface concentration 4 mg/m^2, glazed tile, 30 minutes exposure, 24 hours after contact, read-out: efficacy (mortality). The method, then: Aedes aegypti Test (AEDSAE Surface Treatment & Contact Assay)
Solvent: Aceton+2000 ppm rapeseed oil methyl ester (RME)
In order to produce a sufficient, active ingredient containing solution it is necessary to solve the test compound in the solvent-mix (acetone at 2 mg/mL/RME 2000 ppm). This solution is pipetted onto a glazed tile and after evaporation of the acetone, adult mosquitoes of the species Aedes aegypti strain MONHEIM are placed onto the dried surface. The exposure time is 30 minutes.
Mortality in percent (%) is determined 24 hours after contact of the insects to the treated surface. 100% mortality means that all tested insects are dead, whereas 0% means that no insect died.

In assay [6] the test system is Rhipicephalus microplus (strain Parkhurst, resistant against synthetic pyrethroids). Kind of assay: Rhipicephalus microplus in-vitro contact test, larval cattle tick (BOOPMI Contact). The settings on record: 5 μg/cm^2 (=500 g/ha), after 48 hours, read-out: activity (efficacy, larvae dead or moribund). In outline: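 Glass tubes coated with compound in acetone (900 ppm giving 5 μg/cm²), dried, then loaded with 20-50 pyrethroid-resistant Parkhurst larvae and held at 27 °C, 85% RH. After 48 h negative geotaxis is scored; efficacy in % dead or moribund larvae.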

For assay [7], the system named is Diabrotica balteata. Kind of assay: Diabrotica balteata spray test. The note with it: 168 h, wheat seeds, after 7 days, read-out: activity (efficacy, seedlings grown); for pest or weed control at 160 µg/disc, 500 g/ha: 500 g/ha (=160 μg/well). In outline: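 Germinated wheat seedlings (5 per well, on agar) sprayed with compound in acetone/DMF with emulsifier-containing water, then infested with 10–20 Diabrotica balteata larvae. Efficacy (%) scored after 7 days from seedling growth: 100% = growth as untreated uninfested control, 0% = no seedlings grown.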

Assay [8] concerns Ctenocephalides felis. Kind of assay: Ctenocephalides felis oral test (CTECFE). The settings on record: 48 h, 100 ppm in cattle blood, after 2 days. The essentials:
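About 20 adult unfed fleas fed through parafilm on cattle blood held at 37° C and dosed with compound from a DMSO concentrate; flea chamber at room temperature. Percent mortality scored after 2 days.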

In assay [9] the test system is Rhipicephalus sanguineus. Kind of assay: Rhipicephalus sanguineus in-vitro contact test, adult brown dog ticks (RHIPSA Contact). The settings on record: 5 μg/cm^2 (=500 g/ha), after 48 hours, read-out: activity (efficacy, ticks dead or moribund). As for the experimental part:
Rhipicephalus sanguineus—in-Vitro Contact Tests with Adult Brown Dog Ticks (RHIPSA Contact)
9 mg compound is solved in 1 ml acetone and diluted with acetone to the desired concentration. 250 μl_, of the test solution is filled in 25 ml glass test tubes and homogeneously distributed on the inner walls by rotation and tilting on a shaking device (2 h at 30 rpm). With a compound concentration of 900 ppm, an inner surface of 44.7 cm^2 and a homogeneous distribution, a dose of 5 μg/cm^2 is achieved.
After the solvent has evaporated, each test tube is filled with 5-10 adult brown dog ticks (Rhipicephalus sanguineus), closed with a perforated lid and incubated in a lying position at room temperature and relative humidity. After 48 hours efficacy is determined. The ticks are patted on the ground of the tubes and are incubated on a heating plate at 45-50° C. for at most 5 minutes Immotile or uncoordinated moving ticks, which are not able to escape the heat by climbing upwards, are marked as dead or moribund.
An efficacy of 100% means all ticks are dead or moribund; 0% means no ticks are dead or moribund.

With `C[C@H](Nc1nc2cc(C(F)(F)F)cc(Cl)c2o1)c1ncnn1-c1ncccn1` [Example I-006], in assay [1], the pest or weed control at 5 µg/cm2, 5 µg/cm2 was 100%. Besides, in assay [2], the mortality at 100 g/ha is 100% and the mortality at 500 g/ha stood at 100%. This compound displayed a mortality at 4 ppm in [3] of 90%. Further, in assay [4], the pest or weed control at 0.004 mg worked out at 100% and the pest or weed control at 0.02 mg worked out at 100%. Moreover, the mortality at 4 mg/m2 in assay [5] was 85 to 100%. For the same compound, the pest or weed control at 5 µg/cm2 in [6] is 100%. Further, the pest or weed control at 160 µg/disc, 500 g/ha in assay [7] amounted to 100%. Moreover, the mortality at 100 ppm in assay [8] came to 100%.
Turning to `Cc1nc([C@H](C)Nc2nc3cc(C(F)(F)F)c(Cl)cc3o2)n(-c2ncccn2)n1` [Example I-011], in [2], the mortality at 500 g/ha came to 100%. The mortality at 4 ppm in [3] came out at 90%. For the same compound, in [4], the pest or weed control at 0.004 mg is 100% and the pest or weed control at 0.02 mg stood at 100%. The pest or weed control at 5 µg/cm2 in assay [6] was found to be 80%. Further, in assay [7], the pest or weed control at 100 g/ha was determined as 100% and the pest or weed control at 160 µg/disc, 500 g/ha worked out at 100%. Also, the mortality at 100 ppm in assay [8] worked out at 100%. For the same compound, the pest or weed control at 5 µg/cm2, 5 µg/cm2 in assay [9] was 80%.
For the compound `C[C@H](Nc1nc2cc(C(F)(F)F)cc(Cl)c2o1)c1ncnn1-c1ncc(Cl)cn1` [Example I-036, 7-chloro-N-{(1S)-1-[1-(5-chloropyrimidin-2-yl)-1H-1,2,4-triazol-5-yl]ethyl}-5-(trifluoromethyl)-1,3-benzoxazol-2-amine], in assay [1], the pest or weed control at 5 µg/cm2, 5 µg/cm2 came out at 80%. The mortality at 100 g/ha in assay [2] worked out at 100%. In [4], the pest or weed control at 0.004 mg came to 100% and the pest or weed control at 0.02 mg is 100%. The pest or weed control at 5 µg/cm2 in assay [6] amounted to 100%. In addition, the pest or weed control at 100 g/ha in assay [7] turned out to be 100%. Besides, in assay [8], the mortality at 100 ppm is 100%. Moreover, the pest or weed control at 5 µg/cm2, 5 µg/cm2 in [9] stood at 100%.
Consider `Cc1cnc(-n2ncnc2[C@H](C)Nc2nc3cc(C(F)(F)F)cc(Cl)c3o2)nc1` [Example I-040, 7-Chlor-N-{(1S)-1-[1-(5-methylpyrimidin-2-yl)-1H-1,2,4-triazol-5-yl]ethyl}-5-(trifluormethyl)-1,3-benzoxazol-2-amin], for which the pest or weed control at 5 µg/cm2, 5 µg/cm2 in assay [1] and in assay [9] was 100% in each case. For the same compound, the pest or weed control at 0.004 mg in [4] worked out at 100%. Moreover, the pest or weed control at 5 µg/cm2 in [6] came out at 90%. For the same compound, the pest or weed control at 100 g/ha in assay [7] came to 100%. For the same compound, the mortality at 100 ppm in assay [8] came out at 100%.
As to `C[C@H](Nc1nc2cc(C(F)(F)F)cc(Cl)c2o1)c1ncnn1-c1ncc(F)cn1` [Example I-045, 7-Chlor-N-{(1S)-1-[1-(5-fluorpyrimidin-2-yl)-1H-1,2,4-triazol-5-yl]ethyl}-5-(trifluormethyl)-1,3-benzoxazol-2-amin], the pest or weed control at 5 µg/cm2, 5 µg/cm2 in assay [1] worked out at 100%. For the same compound, in assay [2], the mortality at 100 g/ha came out at 100% and the mortality at 500 g/ha was found to be 100%. Besides, in assay [4], the pest or weed control at 0.004 mg was 100% and the pest or weed control at 0.02 mg is 100%. Besides, the pest or weed control at 5 µg/cm2 in assay [6] is 80%. In assay [7], the pest or weed control at 100 g/ha came out at 100% and the pest or weed control at 160 µg/disc, 500 g/ha was 100%. Besides, the mortality at 100 ppm in assay [8] was determined as 100%. In addition, the pest or weed control at 5 µg/cm2, 5 µg/cm2 in [9] is 100%.
Take `Cc1cnc(-n2ncnc2[C@H](C)Nc2nc3cc(C(F)(F)F)c(Cl)cc3o2)nc1` [Example I-060, 6-Chlor-N-{(1S)-1-[1-(5-methylpyrimidin-2-yl)-1H-1,2,4-triazol-5-yl]ethyl}-5-(trifluormethyl)-1,3-benzoxazol-2-amin]: the figures for the pest or weed control at 5 µg/cm2, 5 µg/cm2 in assay [1] and in [9] were 100% and 80%, respectively. In [2], the mortality at 100 g/ha came out at 83%. This compound displayed a mortality at 4 ppm in assay [3] of 90%. Besides, the pest or weed control at 5 µg/cm2 in [6] worked out at 100%. Further, the pest or weed control at 100 g/ha in assay [7] came to 100%.
Turning to `C[C@H](Nc1nc2cc(OC(F)(F)F)c(Cl)cc2o1)c1ncnn1-c1ncccn1` [Example I-082, 6-Chlor-N-{(1S)-1-[1-(pyrimidin-2-yl)-1H-1,2,4-triazol-5-yl]ethyl}-5-(trifluormethoxy)-1,3-benzoxazol-2-amin], the pest or weed control at 5 µg/cm2, 5 µg/cm2 in assay [1] and in [9] was 100% in each case. The mortality at 100 g/ha in [2] came to 100%. For the same compound, the mortality at 4 ppm in assay [3] was 100%. Also, the pest or weed control at 5 µg/cm2 in assay [6] stood at 100%. Moreover, the pest or weed control at 100 g/ha in assay [7] was 100%.
As for `Cc1nc([C@H](C)Nc2nc3cc(Cl)cc(C(F)(F)F)c3o2)n(-c2ccc(C(F)(F)F)cn2)n1` [Example I-086, 5-Chlor-N-[(1S)-1-{3-methyl-1-[5-(trifluormethyl)pyridin-2-yl]-1H-1,2,4-triazol-5-yl}ethyl]-7-(trifluormethyl)-1,3-benzoxazol-2-amin], the mortality at 4 ppm in assay [3] was determined as 90%. The pest or weed control at 5 µg/cm2 in assay [6] stood at 90%.
Regarding `C[C@H](Nc1nc2cc(C(F)(F)F)c(Cl)cn2n1)c1ncnn1-c1ncccn1` [Example I-096, 6-chloro-N-{(1S)-1-[1-(pyrimidin-2-yl)-1H-1,2,4-triazol-5-yl]ethyl}-7-(trifluoromethyl)[1,2,4]triazolo[1,5-a]pyridin-2-amine], the pest or weed control at 5 µg/cm2, 5 µg/cm2 in assay [1] and in [9] was 100% each time. The pest or weed control at 5 µg/cm2 in [6] turned out to be 90%. The compound also had a mortality at 100 ppm in assay [8] of 100%.
For `C[C@H](Nc1nc2cc(C(F)(F)F)c(Cl)cc2o1)c1nc(C2CC2)nn1-c1ccc(C#N)cn1` [Example I-100, 6-{5-[(1S)-1-{[6-chloro-5-(trifluoromethyl)-1,3-benzoxazol-2-yl]amino}ethyl]-3-cyclopropyl-1H-1,2,4-triazol-1-yl}pyridine-3-carbonitrile], the mortality at 100 g/ha in assay [2] is 100%. In [3], this compound showed a mortality at 4 ppm of 90%. For the same compound, the pest or weed control at 100 g/ha in [7] stood at 100%.
